The text below walks through data of patent US20240398805A1, “QUINAZOLINE DERIVED COMPOUNDS AS EGFR INHIBITORS AND THEIR USES THEREOF” (ACCUTAR BIOTECHNOLOGY INC., priority 2021, published 2024).

Assay type in all cases: cell-based
The subject of one experiment is HCC827 cells. The experiment can be described thus: Cell growth inhibition (CellTiter-Glo, 3 days) in HCC827. The conditions noted are these: Homo sapiens, 72 h, 3 days after administration. A digest of the protocol:
(§1)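 HCC827 cells in RPMI/10% FBS and A431 cells in DMEM/10% FBS were seeded at 5000 cells/well and left overnight. Compound was then added over a concentration range for 3 days of incubation, and viability was read by CellTiter-Glo luminescence.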
In general terms: Cellular ATP, detected with luciferase, serves as a proxy for viable cell number.

The subject of experiment [1] is HCC827-SVD cells (human EGFR exon 20 insertion mutant D770_N771 insSVD). In words: Cell growth inhibition (CellTiter-Glo, 3 days) in HCC827-SVD. The conditions noted are these: 72 h, 3 days after administration. A digest of the protocol:
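HCC827 cells carrying lentiviral codon-optimized EGFR D770_N771 insSVD, with endogenous EGFR knocked out by CRISPR (single clone), seeded at 5000 cells/well in RPMI with 10% FBS. Viability read by CellTiter-Glo luminescence.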

The subject of experiment [2] is HCC827-ASV cells (human EGFR exon 20 insertion mutant A769_D770insASV). In words: Cell growth inhibition (CellTiter-Glo, 3 days) in HCC827-ASV. The conditions noted are these: 72 h, 3 days after administration. Summed up:
(§2)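 HCC827 cells lentivirally transduced with codon-optimized ASV or YVMA insertion mutants were seeded at 5000 cells/well in RPMI with 10% FBS and incubated overnight. Compound was added at various concentrations from a 10× stock in medium, with 3 days' incubation. Viability read by CellTiter-Glo luminescence.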

The test system of experiment [3] is HCC827-YVMA cells (human ERBB2 exon20 insertion mutant A775_G776ins YVMA). In words: Cell growth inhibition (CellTiter-Glo, 3 days) in HCC827-YVMA. The settings on record: 72 h, 3 days after administration. A digest of the protocol:
as §2

Another experiment has as its system A431 cells. In words: Cell growth inhibition (CellTiter-Glo, 3 days) in A431. The conditions noted are these: Homo sapiens, A-431, 72 h, 3 days after administration. A digest of the protocol: as §1

Broadly, the GI50 is the concentration giving 50% growth inhibition. Read a low GI50 as greater sensitivity of the cells. As to `C=CC(=O)N1CCC(Nc2cc3c(Nc4ccc(Oc5nc(-c6ccc(OC)nn6)cs5)cc4F)ncnc3cc2OC)CC1` [Example 56, 1-(4-((4-((2-fluoro-4-((4-(6-methoxypyridazin-3-yl)thiazol-2-yl)oxy)phenyl)amino)-7-methoxyquinazolin-6-yl)amino)piperidin-1-yl)prop-2-en-1-one], the GI50 in the experiment on HCC827 cells was 30 to 60 nM; in experiment [1], less than 30 nM; in experiment [2], less than 30 nM; in experiment [3], less than 30 nM; in the experiment on A431 cells, less than 30 nM.
As to `C=CC(=O)N1CCC(Nc2cc3c(Nc4ccc(Oc5ccn(-c6cccc(OC)n6)n5)cc4F)ncnc3cc2OC)CC1` [Example 58, 1-(4-((4-((2-fluoro-4-((1-(6-methoxypyridin-2-yl)-1H-pyrazol-3-yl)oxy)phenyl)amino)-7-methoxyquinazolin-6-yl)amino)piperidin-1-yl)prop-2-en-1-one], the GI50 with HCC827 cells lay in the range of 60 to 100 nM; in experiment [1], 60 to 100 nM; in experiment [2], 60 to 100 nM; in experiment [3] it was 60 to 100 nM; in the experiment with A431 cells it was 300 to 600 nM.
Turning to `C=CC(=O)N1CCC(Nc2cc3c(Nc4ccc(Oc5ccn(-c6ccc(OC)cn6)n5)cc4F)ncnc3cc2OC)CC1` [Example 59, 1-(4-((4-((2-fluoro-4-((1-(5-methoxypyridin-2-yl)-1H-pyrazol-3-yl)oxy)phenyl)amino)-7-methoxyquinazolin-6-yl)amino)piperidin-1-yl)prop-2-en-1-one], the GI50 in the experiment with HCC827 cells was 60 to 100 nM; in experiment [1], 60 to 100 nM; in experiment [2] it was 30 to 60 nM; in experiment [3], 30 to 60 nM; with A431 cells it was 100 to 300 nM.
Consider `C=CC(=O)N1CCC(Nc2cc3c(Nc4ccc(Oc5ccn(-c6cnc(C)c(F)c6)n5)c(F)c4)ncnc3cc2OC)CC1` [Example 86, 1-(4-((4-((3-fluoro-4-((1-(5-fluoro-6-methylpyridin-3-yl)-1H-pyrazol-3-yl)oxy)phenyl)amino)-7-methoxyquinazolin-6-yl)amino)piperidin-1-yl)prop-2-en-1-one], for which the GI50 in the experiment with HCC827 cells lay within 30 to 60 nM; in experiment [1], 30 to 60 nM; in experiment [2], 60 to 100 nM; in experiment [3], 30 to 60 nM; in the experiment on A431 cells, 60 to 100 nM.
As to `C=CC(=O)N1CCC(Nc2cc3c(Nc4ccc(Oc5ncc(-c6cnc(C)c(F)c6)s5)cc4F)ncnc3cc2OC)CC1` [Example 88, 1-(4-((4-((2-fluoro-4-((5-(5-fluoro-6-methylpyridin-3-yl)thiazol-2-yl)oxy)phenyl)amino)-7-methoxyquinazolin-6-yl)amino)piperidin-1-yl)prop-2-en-1-one], the GI50 in the experiment on HCC827 cells is 30 to 60 nM; in experiment [1] it was 100 to 300 nM; in experiment [2] it was 60 to 100 nM; in experiment [3], 30 to 60 nM; in the experiment on A431 cells, no less than 1000 nM.
For `C=CC(=O)N1CCC(Nc2cc3c(Nc4ccc(Oc5ccn(-c6ccc(C)nc6F)n5)cc4F)ncnc3cc2OC)CC1` [Example 89, 1-(4-((4-((2-fluoro-4-((1-(2-fluoro-6-methylpyridin-3-yl)-1H-pyrazol-3-yl)oxy)phenyl)amino)-7-methoxyquinazolin-6-yl)amino)piperidin-1-yl)prop-2-en-1-one], the GI50 in the experiment on HCC827 cells is 30 to 60 nM; in experiment [1] it was less than 30 nM; in experiment [2] it was less than 30 nM; in experiment [3] it was less than 30 nM; with A431 cells, 600 to 1000 nM.
Consider `C=CC(=O)N1CCC(Nc2cc3c(Nc4ccc(Oc5ccn(-c6cnc(OC)c(F)c6)n5)cc4F)ncnc3cc2OC)CC1` [Example 90, 1-(4-((4-((2-fluoro-4-((1-(5-fluoro-6-methoxypyridin-3-yl)-1H-pyrazol-3-yl)oxy)phenyl)amino)-7-methoxyquinazolin-6-yl)amino)piperidin-1-yl)prop-2-en-1-one], for which the GI50 with HCC827 cells was in the range of 60 to 100 nM; in experiment [1] it was 60 to 100 nM; in experiment [2], 100 to 300 nM; in experiment [3], 60 to 100 nM; in the experiment on A431 cells, 100 to 300 nM.
In the case of `C=CC(=O)N1CCC(Nc2cc3c(Nc4ccc(Oc5ccn(-c6cnc7ccccc7c6)n5)cc4F)ncnc3cc2OC)CC1` [Example 91, 1-(4-((4-((2-fluoro-4-((1-(quinolin-3-yl)-1H-pyrazol-3-yl)oxy)phenyl)amino)-7-methoxyquinazolin-6-yl)amino)piperidin-1-yl)prop-2-en-1-one], the GI50 in the experiment on HCC827 cells lay in the range of 100 to 300 nM; in experiment [1], 30 to 60 nM; in experiment [2] it was 60 to 100 nM; in experiment [3], 100 to 300 nM; in the experiment on A431 cells, 100 to 300 nM.
For `C=CC(=O)N1CCC(Nc2cc3c(Nc4ccc(Oc5ccn(-c6cnc(C)nc6)n5)cc4F)ncnc3cc2OC)CC1` [Example 92, 1-(4-((4-((2-fluoro-4-((1-(2-methylpyrimidin-5-yl)-1H-pyrazol-3-yl)oxy)phenyl)amino)-7-methoxyquinazolin-6-yl)amino)piperidin-1-yl)prop-2-en-1-one], the GI50 in the experiment with HCC827 cells is 60 to 100 nM; in experiment [1], less than 30 nM; in experiment [2], less than 30 nM; in experiment [3], less than 30 nM; in the experiment with A431 cells, 100 to 300 nM.
Consider `C=CC(=O)N1CCC(Nc2cc3c(Nc4ccc(Oc5ccn(-c6ccc(C)c(F)n6)n5)cc4F)ncnc3cc2OC)CC1` [Example 93, 1-(4-((4-((2-fluoro-4-((1-(6-fluoro-5-methylpyridin-2-yl)-1H-pyrazol-3-yl)oxy)phenyl)amino)-7-methoxyquinazolin-6-yl)amino)piperidin-1-yl)prop-2-en-1-one], for which the GI50 in the experiment on HCC827 cells is 60 to 100 nM; in experiment [1], 60 to 100 nM; in experiment [2], 30 to 60 nM; in experiment [3] it was 30 to 60 nM; in the experiment with A431 cells, no less than 1000 nM.
For `C=CC(=O)N1CCC(Nc2cc3c(Nc4ccc(Oc5nc(-c6cnc(C)c(F)c6)cs5)cc4F)ncnc3cc2OC)CC1` [Example 94, 1-(4-((4-((2-fluoro-4-((4-(5-fluoro-6-methylpyridin-3-yl)thiazol-2-yl)oxy)phenyl)amino)-7-methoxyquinazolin-6-yl)amino)piperidin-1-yl)prop-2-en-1-one], the GI50 in the experiment on HCC827 cells was 30 to 60 nM; in experiment [1], 100 to 300 nM; in experiment [2], 30 to 60 nM; in experiment [3] it was 30 to 60 nM; with A431 cells, no less than 1000 nM.
As to `C=CC(=O)N1CCC(Nc2cc3c(Nc4ccc(OCc5ccccn5)c(Cl)c4)ncnc3cc2OCCN2CCOCC2)CC1` [Example 95, 1-(4-((4-((3-chloro-4-(pyridin-2-ylmethoxy)phenyl)amino)-7-(2-morpholinoethoxy)quinazolin-6-yl)amino)piperidin-1-yl)prop-2-en-1-one], the GI50 is less than 30 nM in the experiment with HCC827 cells; less than 30 nM in experiment [1]; less than 30 nM in experiment [2]; less than 30 nM in experiment [3]; 100 to 300 nM in the experiment with A431 cells.
Take `C=CC(=O)N1CCC(Nc2cc3c(Nc4ccc(OCc5ccccn5)c(Cl)c4)ncnc3cc2OCCN(C)C)CC1` [Example 96, 1-(4-((4-((3-chloro-4-(pyridin-2-ylmethoxy)phenyl)amino)-7-(2-(dimethylamino)ethoxy)quinazolin-6-yl)amino)piperidin-1-yl)prop-2-en-1-one]: the 50% growth inhibitory concentration (GI50) in the experiment with HCC827 cells lay in the range of 60 to 100 nM; in experiment [1], 100 to 300 nM; in experiment [2], 100 to 300 nM; in experiment [3], 100 to 300 nM; in the experiment with A431 cells it was 300 to 600 nM.
Take `C=CC(=O)N1CCC(Nc2cc3c(Nc4ccc(Oc5ccnc(-c6nc(C)cs6)c5)cc4F)ncnc3cc2OC)CC1` [Example 98, 1-(4-((4-((2-fluoro-4-((2-(4-methylthiazol-2-yl)pyridin-4-yl)oxy)phenyl)amino)-7-methoxyquinazolin-6-yl)amino)piperidin-1-yl)prop-2-en-1-one]: the GI50 with HCC827 cells is 60 to 100 nM; in experiment [1], less than 30 nM; in experiment [2], less than 30 nM; in experiment [3], less than 30 nM; with A431 cells it was 100 to 300 nM.
In the case of `C=CC(=O)N1CCC(Nc2cc3c(Nc4ccc(Oc5ccnc(-c6ncc(C)s6)c5)cc4F)ncnc3cc2OC)CC1` [Example 99, 1-(4-((4-((2-fluoro-4-((2-(5-methylthiazol-2-yl)pyridin-4-yl)oxy)phenyl)amino)-7-methoxyquinazolin-6-yl)amino)piperidin-1-yl)prop-2-en-1-one], the GI50 in the experiment with HCC827 cells was 60 to 100 nM; in experiment [1] it was 60 to 100 nM; in experiment [2] it was 30 to 60 nM; in experiment [3] it was 30 to 60 nM; in the experiment with A431 cells, 600 to 1000 nM.
With `C=CC(=O)N1CCC(Nc2cc3c(Nc4ccc(Oc5ccnc(N6CCCC6)c5)cc4F)ncnc3cc2OC)CC1` [Example 102, 1-(4-((4-((2-fluoro-4-((2-(pyrrolidin-1-yl)pyridin-4-yl)oxy)phenyl)amino)-7-methoxyquinazolin-6-yl)amino)piperidin-1-yl)prop-2-en-1-one], the GI50 in the experiment on HCC827 cells fell in the range of 100 to 300 nM; in experiment [1] it was 60 to 100 nM; in experiment [2] it was 100 to 300 nM; in experiment [3], 100 to 300 nM; with A431 cells it was 100 to 300 nM.
In the case of `C=CC(=O)N1CCC(Nc2cc3c(Nc4ccc(Oc5ccnc(N(C)C)c5)cc4F)ncnc3cc2OC)CC1` [Example 103, 1-(4-((4-((4-((2-(dimethylamino)pyridin-4-yl)oxy)-2-fluorophenyl)amino)-7-methoxyquinazolin-6-yl)amino)piperidin-1-yl)prop-2-en-1-one], the GI50 in the experiment on HCC827 cells was 30 to 60 nM; in experiment [1], less than 30 nM; in experiment [2] it was less than 30 nM; in experiment [3] it was less than 30 nM; in the experiment with A431 cells, 100 to 300 nM.
